Data from patent US20220395500A1, “SMALL MOLECULE ACTIVATORS OF INTERFERON REGULATORY FACTOR 3 AND METHODS OF USE THEREOF” (Neuralexo, Inc., priority 2020, published 2022).

Tests used:
[1] = THP1-Dual cytotoxicity (Cell Titer Glo, ATP); format: cell-based, human; conditions: human, THP1-Dual cells, read-out: Thp1 cytotox CC50
Excerpt: FIG. 9C is a CC50 (50% cytotoxic concentration) graph of AV-C dependent IRF activation in THP1-Dual cells, determined with an 8-point dose response experiment. Cell viability was monitored based on quantitation of ATP present, as an indicator of metabolically active cells, where luminescence is proportional to the amount of ATP present, using Cell-Titer Glo (Promega).
The OTRADI Small Molecule Library of approximately 246,000 diverse compounds (see below for description) was screened using the THP1-Dual based HTS platform described above. All transfer steps in the screen are fully automated, thus reducing variability. Primary screening included a single data point or dose for each molecule. After data normalization was applied for each assay run, “hit” selection was performed on the plates that pass the quality control (QC) criterion. Hits were defined as samples having values above the activity cutoff determined based on noise level of the assay to reduce false positive rates. In the pilot study discussed above this activity value was >3σ above the ISRE mean with the added criteria of NFκB activation being lower than […] from the mean to identify IRF selective compounds. The ratio of ISRE:NFκB activity was also calculated as a selectivity index for prioritizing hit selection. Primary hits underwent secondary screening to determine the 50% effective concentration (EC50) and 50% cytotoxic concentration (CC50) of these agents using an 8-point dose-response curve in the human THP1-Dual cells. Cytotoxicity was measured in the plate using Cell Titer Glo (Promega). Identified candidate compounds were further screened (orthogonal screen) for cross species activity in the validated mouse J774-Dual assay using an 8-point dose-response format to determine EC50 and CC50 values as well as ISRE:NFκB ratios. A general process flow for the experimental design laid out above is depicted at FIG. 12.

J774-Dual cytotoxicity = format: cell-based, mouse; conditions: mouse, J774-Dual cells, read-out: J774 cytotox CC50
Experimental: The OTRADI Small Molecule Library of approximately 246,000 diverse compounds (see below for description) was screened using the THP1-Dual based HTS platform described above. All transfer steps in the screen are fully automated, thus reducing variability. Primary screening included a single data point or dose for each molecule. After data normalization was applied for each assay run, “hit” selection was performed on the plates that pass the quality control (QC) criterion. Hits were defined as samples having values above the activity cutoff determined based on noise level of the assay to reduce false positive rates. […] The ratio of ISRE:NFκB activity was also calculated as a selectivity index for prioritizing hit selection. Primary hits underwent secondary screening to determine the 50% effective concentration (EC50) and 50% cytotoxic concentration (CC50) of these agents using an 8-point dose-response curve in the human THP1-Dual cells. Cytotoxicity was measured in the plate using Cell Titer Glo (Promega). Identified candidate compounds were further screened (orthogonal screen) for cross species activity in the validated mouse J774-Dual assay using an 8-point dose-response format to determine EC50 and CC50 values as well as ISRE:NFκB ratios. A general process flow for the experimental design laid out above is depicted at FIG. 12.

Row | Compound | CC50 ([1]; Human Reporter Cell Line THP1) [µM] | CC50 (J774-Dual cytotoxicity; Mouse Reporter Cell Line J774) [µM] | CC50 ([1]; Human Reporter Cell Line) [µM] | CC50 (J774-Dual cytotoxicity; Mouse Reporter Cell Line) [µM]
1 | Cc1ccc(C(=O)Nc2cc(-c3nc4cc(C(C)C)ccc4o3)ccc2C)cc1C [ND-9] | > 25 | > 25 | – | –
2 | O=C(c1cccs1)N1CCN(Cc2cn(Cc3ccc(Cl)cc3)nn2)CC1 [NA-56] | – | – | > 25 | > 25
3 | COc1cccc(Cn2cc(CN3CCN(C(=O)c4cccs4)CC3)nn2)c1 [NA-57] | – | – | > 25 | > 25
4 | Cc1cc2nc(-c3c[nH]c4ccccc34)oc2cc1C [ND-108] | > 10 | > 10 | – | –
5 | O=C(Nc1ccc(N2CCN(C(=O)c3cccs3)CC2)cc1)c1cncc(-c2ccccc2)c1 [NA-40] | – | – | > 25 | > 25
6 | COc1ccc(C(=O)Nc2cc(-c3nc4cc(C(C)C)ccc4o3)ccc2C)cc1 [ND-10] | > 25 | > 25 | – | –
7 | O=C(c1cccs1)N1CCN(Cc2cn(Cc3ccccc3Cl)nn2)CC1 [NA-58] | – | – | > 25 | > 25
8 | O=C(Nc1ccc(N2CCN(C(=O)c3cccs3)CC2)c(Cl)c1)c1cc([N+](=O)[O-])ccc1N1CCOCC1 [NA-66] | – | – | > 10 | > 10
9 | Cc1cc(C(=O)Nc2cc(-c3nc4ccccc4s3)ccc2Cl)ccc1[N+](=O)[O-] [ND-51] | 22.1 | > 25 | – | –
10 | CCOc1ccc(C(=O)Nc2cccc(-c3nc4cc(C(C)C)ccc4o3)c2)cc1[N+](=O)[O-] [ND-17] | > 25 | > 25 | – | –
11 | Cc1cc2nc(-c3ccc(C)c(Nc4[nH]c(=O)[nH]c(=O)c4[N+](=O)[O-])c3)oc2cc1C [ND-56] | > 25 | > 25 | – | –
12 | COc1ccc(C(=O)Nc2cc(-c3nc4ccccc4s3)ccc2C)cc1C(F)(F)F [ND-87] | 3.02 | > 25 | – | –
13 | Cc1ccc(-c2nc3cc(C(C)C)ccc3o2)cc1NC(=S)NC(=O)c1cccc(F)c1 [ND-11] | > 25 | > 25 | – | –
14 | Cc1ccc(-c2nc3cc(C(C)C)ccc3o2)cc1NC(=O)c1cc2ccccc2o1 [ND-12] | 47.6 | > 25 | – | –
15 | CCOc1ccc(C(=O)Nc2ccc3oc(-c4cccnc4)nc3c2)cc1[N+](=O)[O-] [ND-44] | > 25 | > 25 | – | –
16 | COc1cc(C(=O)Nc2cc(-c3nc4cc(C(C)C)ccc4o3)ccc2C)cc(OC)c1OC [ND-14] | > 25 | > 25 | – | –
17 | CC1=NN(c2ccccc2)C(=O)C1 [ND-77] | > 25 | > 25 | – | –
18 | COc1ccc(S(=O)(=O)Nc2cc(-c3nc4cc(C)c(C)cc4o3)ccc2C)cc1[N+](=O)[O-] [ND-107] | > 10 | > 10 | – | –
19 | Cc1ccc(-c2nc3cc(C(C)C)ccc3o2)cc1NC(=O)c1ccc(Cl)cc1 [ND-53] | > 25 | > 25 | – | –
20 | Cc1ccc(C(=O)Nc2nc(C)c(-c3ccccc3)s2)cc1[N+](=O)[O-] [ND-32] | > 25 | > 25 | – | –
21 | O=C(Nc1ccc(-c2ccccc2)cc1)Nc1ccc(N2CCN(C(=O)c3cccs3)CC2)cc1 [NA-72] | – | – | > 10 | > 10
22 | COc1ccc(C(=O)Nc2ccc(Cl)c(-c3nc4cc(C)c(C)cc4o3)c2)cc1[N+](=O)[O-] [ND-45] | 12.9 | > 25 | – | –
23 | COc1ccc(C(=O)Nc2cccc(-c3nc4ccccc4s3)c2C)cc1[N+](=O)[O-] [ND-90] | > 25 | > 25 | – | –
24 | Cc1ccc(-c2nc3cc(OCCCN4CCCC4)ccc3o2)cc1[N+](=O)[O-] [ND-83] | > 25 | > 25 | – | –
25 | CN(C)CCCOc1ccc(-c2nc3cc(OCCCN4CCCC4)ccc3o2)cc1 [ND-93] | > 25 | > 25 | – | –
26 | Cc1ccc(Cn2cc(CN3CCN(C(=O)c4cccs4)CC3)nn2)cc1 [NA-55] | – | – | > 25 | > 25
27 | Cc1cc(NC(=O)c2ccc(OCc3ccccc3)cc2)ccc1N1CCN(C(=O)c2cccs2)CC1 [NA-74] | – | – | > 10 | > 10
28 | CCOC(=O)C1=CCCC[C@H]1S(=O)(=O)Nc1ccc(F)cc1Cl [ND-72] | > 25 | > 25 | – | –
29 | Cc1ccc(-c2nc3cc(C(C)C)ccc3o2)cc1NC(=O)c1ccc(F)c([N+](=O)[O-])c1 [ND-54] | 6.84 | > 25 | – | –
